# Test results from ChEMBL document CHEMBL4261615, “Design, synthesis, biological evaluation and cellular imaging of imidazo[4,5-b]pyridine derivatives as potent and selective TAM inhibitors” (Bioorg Med Chem, 2018).
# Calls of active or inactive are those of the source. No cut-off for these calls is given here.
# Experiments:
# [1] = target: Fibroblast growth factor receptor 1 (Homo sapiens) (UniProt P11362); experiment: Binding affinity to wild-type human partial length FGFR1 (P357 to V669 residues) expressed in bacterial expression system assessed as fraction of unbound kinase to substrate at 10 uM after 1 hr by KinomeScan assay
# Chain of Fibroblast growth factor receptor 1 (Homo sapiens) (P11362 22-822 limits assumed): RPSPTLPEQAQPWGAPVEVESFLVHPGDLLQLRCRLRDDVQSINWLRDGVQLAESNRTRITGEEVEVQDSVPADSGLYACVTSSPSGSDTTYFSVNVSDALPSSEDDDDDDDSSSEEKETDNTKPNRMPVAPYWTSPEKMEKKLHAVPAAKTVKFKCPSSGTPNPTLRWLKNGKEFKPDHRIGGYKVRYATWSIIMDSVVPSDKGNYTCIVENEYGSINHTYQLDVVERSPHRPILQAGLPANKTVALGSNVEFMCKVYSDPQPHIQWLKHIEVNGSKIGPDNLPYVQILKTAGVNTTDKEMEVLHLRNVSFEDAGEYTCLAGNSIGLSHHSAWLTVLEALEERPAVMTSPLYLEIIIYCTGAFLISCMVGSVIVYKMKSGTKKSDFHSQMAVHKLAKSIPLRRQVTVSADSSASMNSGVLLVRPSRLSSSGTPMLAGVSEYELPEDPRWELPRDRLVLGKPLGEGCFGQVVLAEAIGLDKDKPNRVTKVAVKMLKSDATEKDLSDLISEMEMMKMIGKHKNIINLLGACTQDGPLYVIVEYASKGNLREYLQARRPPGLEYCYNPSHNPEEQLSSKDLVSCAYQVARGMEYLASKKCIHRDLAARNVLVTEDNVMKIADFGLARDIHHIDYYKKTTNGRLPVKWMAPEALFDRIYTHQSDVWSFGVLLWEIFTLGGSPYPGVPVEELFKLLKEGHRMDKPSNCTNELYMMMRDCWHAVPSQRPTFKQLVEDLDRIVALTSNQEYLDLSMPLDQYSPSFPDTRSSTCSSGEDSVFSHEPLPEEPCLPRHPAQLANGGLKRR
# [2] = target: T1, Aurora kinase A (Homo sapiens) (UniProt O14965); experiment: Binding affinity to wild-type human partial length AURKA (E122 to K401 residues) expressed in mammalian expression system assessed as fraction of unbound kinase to substrate at 1 uM after 1 hr by KinomeScan assay
# T1 sequence (whole entry): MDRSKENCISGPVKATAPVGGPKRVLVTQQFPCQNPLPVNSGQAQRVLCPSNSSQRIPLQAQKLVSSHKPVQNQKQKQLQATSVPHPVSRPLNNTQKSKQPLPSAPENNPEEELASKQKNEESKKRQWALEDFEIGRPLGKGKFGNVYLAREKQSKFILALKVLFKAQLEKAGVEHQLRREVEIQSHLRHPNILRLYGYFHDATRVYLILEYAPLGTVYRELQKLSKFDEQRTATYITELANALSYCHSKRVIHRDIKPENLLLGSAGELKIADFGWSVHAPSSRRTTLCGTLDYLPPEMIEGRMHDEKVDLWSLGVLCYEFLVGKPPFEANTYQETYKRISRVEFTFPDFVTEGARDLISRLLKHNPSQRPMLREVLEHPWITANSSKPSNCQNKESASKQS
# [3] = target: Hepatocyte growth factor receptor (Homo sapiens) (UniProt P08581); experiment: Binding affinity to human MET (D1010 to S1367 residues) expressed in bacterial expression system assessed as fraction of unbound kinase to substrate at 0.1 uM after 1 hr by KinomeScan assay
# Chain of Hepatocyte growth factor receptor (Homo sapiens) (P08581 whole entry, the tested form may be a part): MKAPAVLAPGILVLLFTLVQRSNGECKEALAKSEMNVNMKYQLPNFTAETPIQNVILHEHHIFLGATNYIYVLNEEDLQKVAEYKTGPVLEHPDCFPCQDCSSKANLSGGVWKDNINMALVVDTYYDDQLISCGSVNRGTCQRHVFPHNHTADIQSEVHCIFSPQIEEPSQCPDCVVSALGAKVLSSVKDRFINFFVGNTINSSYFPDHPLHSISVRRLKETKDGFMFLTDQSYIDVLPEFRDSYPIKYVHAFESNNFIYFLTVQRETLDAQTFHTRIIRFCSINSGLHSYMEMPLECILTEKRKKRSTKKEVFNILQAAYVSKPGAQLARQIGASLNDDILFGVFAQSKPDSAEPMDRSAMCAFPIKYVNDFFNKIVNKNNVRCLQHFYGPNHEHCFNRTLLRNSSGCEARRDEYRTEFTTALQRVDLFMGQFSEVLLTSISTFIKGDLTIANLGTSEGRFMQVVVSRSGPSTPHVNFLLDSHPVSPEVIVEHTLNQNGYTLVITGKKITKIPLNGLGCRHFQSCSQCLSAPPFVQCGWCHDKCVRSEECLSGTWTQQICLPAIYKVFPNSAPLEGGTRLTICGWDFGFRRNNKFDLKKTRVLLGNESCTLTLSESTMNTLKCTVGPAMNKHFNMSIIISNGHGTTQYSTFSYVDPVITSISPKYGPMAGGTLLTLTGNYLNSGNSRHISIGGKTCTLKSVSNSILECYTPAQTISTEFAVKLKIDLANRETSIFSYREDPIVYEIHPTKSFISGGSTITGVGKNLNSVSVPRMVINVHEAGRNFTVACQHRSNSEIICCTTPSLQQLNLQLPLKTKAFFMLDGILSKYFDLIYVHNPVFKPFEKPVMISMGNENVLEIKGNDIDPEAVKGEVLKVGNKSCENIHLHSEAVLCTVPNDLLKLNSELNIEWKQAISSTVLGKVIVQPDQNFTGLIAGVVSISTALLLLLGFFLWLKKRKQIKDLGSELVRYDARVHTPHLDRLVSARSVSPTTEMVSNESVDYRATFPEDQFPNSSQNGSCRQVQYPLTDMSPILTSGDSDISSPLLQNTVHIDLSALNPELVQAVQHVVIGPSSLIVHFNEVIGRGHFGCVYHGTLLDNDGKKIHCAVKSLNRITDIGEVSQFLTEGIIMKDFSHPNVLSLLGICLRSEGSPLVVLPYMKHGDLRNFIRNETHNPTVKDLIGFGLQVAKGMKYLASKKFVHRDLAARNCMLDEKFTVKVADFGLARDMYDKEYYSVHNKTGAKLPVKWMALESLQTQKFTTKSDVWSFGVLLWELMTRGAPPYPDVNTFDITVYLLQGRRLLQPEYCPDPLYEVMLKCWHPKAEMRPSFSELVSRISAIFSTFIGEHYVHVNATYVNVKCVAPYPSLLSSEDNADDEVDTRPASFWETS
# [4] = target: T2, Tyrosine-protein kinase receptor UFO (Homo sapiens, UniProt P30530); experiment: Inhibition of recombinant His-tagged human Axl (473 to end residues) cytoplasmic domain expressed in insect system using poly (Glu-Ala-Tyr) peptide as substrate after 5 mins in presence of ADP by fluorescence analysis
# T2 sequence (P30530 whole entry): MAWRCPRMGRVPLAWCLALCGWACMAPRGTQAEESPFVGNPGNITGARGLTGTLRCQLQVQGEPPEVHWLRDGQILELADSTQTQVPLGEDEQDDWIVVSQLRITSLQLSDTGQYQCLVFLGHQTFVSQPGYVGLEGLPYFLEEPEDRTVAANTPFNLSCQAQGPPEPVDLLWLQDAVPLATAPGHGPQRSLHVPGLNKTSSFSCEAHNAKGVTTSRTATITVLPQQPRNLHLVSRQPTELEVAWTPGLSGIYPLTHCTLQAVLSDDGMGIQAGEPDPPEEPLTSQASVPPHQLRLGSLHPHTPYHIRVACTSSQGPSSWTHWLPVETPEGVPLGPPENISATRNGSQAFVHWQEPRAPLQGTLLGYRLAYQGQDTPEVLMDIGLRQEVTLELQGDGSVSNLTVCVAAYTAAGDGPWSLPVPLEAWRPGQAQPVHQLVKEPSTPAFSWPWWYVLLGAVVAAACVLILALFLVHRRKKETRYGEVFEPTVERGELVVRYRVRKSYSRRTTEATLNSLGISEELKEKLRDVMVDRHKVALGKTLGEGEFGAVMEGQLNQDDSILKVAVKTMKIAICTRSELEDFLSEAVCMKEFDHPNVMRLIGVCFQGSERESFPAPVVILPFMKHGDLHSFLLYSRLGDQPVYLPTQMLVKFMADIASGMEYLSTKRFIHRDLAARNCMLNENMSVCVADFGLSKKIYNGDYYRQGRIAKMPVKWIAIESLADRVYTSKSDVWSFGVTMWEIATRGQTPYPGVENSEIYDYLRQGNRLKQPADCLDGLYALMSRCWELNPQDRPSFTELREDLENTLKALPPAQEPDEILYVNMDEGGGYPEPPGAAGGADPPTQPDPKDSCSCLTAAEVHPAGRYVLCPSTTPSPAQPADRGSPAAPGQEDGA
# [5] = target: Cyclin-dependent kinase 2 (Homo sapiens) (UniProt P24941); experiment: Binding affinity to wild-type human full length CDK2 (M1 to L298 residues) expressed in bacterial expression system assessed as fraction of unbound kinase to substrate at 1 uM after 1 hr by KinomeScan assay
# [6] = target: Serine/threonine-protein kinase B-raf (Homo sapiens) (UniProt P15056); experiment: Binding affinity to wild-type human partial length BRAF (S429 to E741 residues) expressed in mammalian expression system assessed as fraction of unbound kinase to substrate at 1 uM after 1 hr by KinomeScan assay
# Chain of Serine/threonine-protein kinase B-raf (Homo sapiens) (P15056 whole entry, the tested form may be a part): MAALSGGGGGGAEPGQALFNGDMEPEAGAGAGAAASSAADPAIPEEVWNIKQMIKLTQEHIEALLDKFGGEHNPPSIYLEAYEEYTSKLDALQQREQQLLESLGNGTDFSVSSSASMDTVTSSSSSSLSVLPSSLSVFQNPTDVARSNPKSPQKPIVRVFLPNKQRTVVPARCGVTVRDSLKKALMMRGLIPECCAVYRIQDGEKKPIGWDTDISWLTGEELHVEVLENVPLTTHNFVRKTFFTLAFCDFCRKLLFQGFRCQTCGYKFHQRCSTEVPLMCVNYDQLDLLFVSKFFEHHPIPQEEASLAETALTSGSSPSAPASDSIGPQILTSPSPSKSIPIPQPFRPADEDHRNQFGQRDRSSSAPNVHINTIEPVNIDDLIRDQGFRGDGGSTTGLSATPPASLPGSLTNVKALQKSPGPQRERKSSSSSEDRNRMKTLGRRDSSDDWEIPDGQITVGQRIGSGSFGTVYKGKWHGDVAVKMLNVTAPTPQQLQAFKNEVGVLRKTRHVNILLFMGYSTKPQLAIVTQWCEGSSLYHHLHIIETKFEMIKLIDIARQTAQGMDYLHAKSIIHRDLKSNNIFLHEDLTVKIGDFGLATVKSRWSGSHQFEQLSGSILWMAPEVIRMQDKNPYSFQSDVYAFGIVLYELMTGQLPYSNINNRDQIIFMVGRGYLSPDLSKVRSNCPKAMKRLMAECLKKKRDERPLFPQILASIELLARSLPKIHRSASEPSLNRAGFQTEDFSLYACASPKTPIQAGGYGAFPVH
# [7] = target: T3, Tyrosine-protein kinase receptor TYRO3 (Homo sapiens) (UniProt Q06418); experiment: Inhibition of recombinant GST-tagged human Tyro3 (451 to 890 residues) cytoplasmic domain expressed in Baculovirus expression system using poly (Glu-Ala-Tyr) peptide as substrate after 1.5 hrs by ELISA
# T3 sequence (whole entry): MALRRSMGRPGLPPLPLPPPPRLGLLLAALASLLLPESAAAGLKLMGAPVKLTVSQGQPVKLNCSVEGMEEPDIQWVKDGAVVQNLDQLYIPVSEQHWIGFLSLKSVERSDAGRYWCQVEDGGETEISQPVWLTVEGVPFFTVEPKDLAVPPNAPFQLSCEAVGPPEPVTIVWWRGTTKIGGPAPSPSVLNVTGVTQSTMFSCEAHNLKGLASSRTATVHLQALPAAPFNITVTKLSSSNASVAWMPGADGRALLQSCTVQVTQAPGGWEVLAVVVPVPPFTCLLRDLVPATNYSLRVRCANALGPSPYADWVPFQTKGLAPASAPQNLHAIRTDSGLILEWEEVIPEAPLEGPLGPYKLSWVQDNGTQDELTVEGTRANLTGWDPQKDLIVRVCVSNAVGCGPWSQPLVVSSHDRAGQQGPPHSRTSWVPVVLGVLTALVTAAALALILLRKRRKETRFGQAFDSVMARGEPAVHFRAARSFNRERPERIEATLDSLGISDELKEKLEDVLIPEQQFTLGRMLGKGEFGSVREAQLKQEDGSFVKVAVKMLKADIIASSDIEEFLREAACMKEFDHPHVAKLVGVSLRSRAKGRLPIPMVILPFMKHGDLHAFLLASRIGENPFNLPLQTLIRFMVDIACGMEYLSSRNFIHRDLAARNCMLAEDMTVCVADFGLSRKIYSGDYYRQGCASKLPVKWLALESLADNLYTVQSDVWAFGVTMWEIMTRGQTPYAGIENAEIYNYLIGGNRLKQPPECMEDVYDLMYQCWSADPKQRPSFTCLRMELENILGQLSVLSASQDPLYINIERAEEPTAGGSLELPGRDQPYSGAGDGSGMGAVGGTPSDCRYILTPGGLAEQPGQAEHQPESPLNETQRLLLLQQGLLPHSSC
# [8] = target: Tyrosine-protein kinase receptor UFO (Homo sapiens) (UniProt P30530); experiment: Inhibition of recombinant His-tagged human Axl (473 to end residues) cytoplasmic domain expressed in insect system using poly (Glu-Ala-Tyr) peptide as substrate after 1.5 hrs by ELISA
# RT-112 = experiment: Antiproliferative activity against human RT112 cells after 72 hrs by CellTiter-Glo assay; assay type: functional, cell-based
Activity [1],Activity [2],Activity [3],IC50 [4],Activity [5],Activity [6],inhibition [7],inhibition [8],Compound,Activity (RT-112)
11%,9%,12%,2000 nM,0%,0%,inactive,inactive,O=C(Nc1ccc(Oc2c(Br)cnc3[nH]cnc23)c(F)c1)c1cccn(-c2ccc(F)cc2)c1=O,–
1%,2%,83%,70 nM,95.5%,8%,inactive,inactive,CC(C)c1nc2c(Oc3ccc(NC(=O)c4cccn(-c5ccc(F)cc5)c4=O)cc3F)ccnc2[nH]1,inactive
15%,6%,54%,> 100000 nM,0%,2%,inactive,inactive,Cc1cnc2[nH]cnc2c1Oc1ccc(NC(=O)c2cccn(-c3ccc(F)cc3)c2=O)cc1F,inactive
6%,2%,83%,0.77 nM,0%,12%,Active,Active,O=C(Nc1ccc(Oc2ccnc3[nH]cnc23)c(F)c1)c1cccn(-c2ccc(F)cc2)c1=O,inactive
